Values of other authors in patent US9381220B2, “Sceletium extract and uses thereof” (H. L. Hall & Sons Limited, priority 2009, dated 2016).

Key:
5-HT uptake = 5-HT uptake (Homo sapiens, UniProt P31645); details: as described in U.S. Pat. No. 6,288,104
[1] = fermentation, exposure to light, exposure to heat, aqueous medium
PDE4 = details: Napoletano et al. 2001

Chain of 5-HT uptake (P31645 whole entry): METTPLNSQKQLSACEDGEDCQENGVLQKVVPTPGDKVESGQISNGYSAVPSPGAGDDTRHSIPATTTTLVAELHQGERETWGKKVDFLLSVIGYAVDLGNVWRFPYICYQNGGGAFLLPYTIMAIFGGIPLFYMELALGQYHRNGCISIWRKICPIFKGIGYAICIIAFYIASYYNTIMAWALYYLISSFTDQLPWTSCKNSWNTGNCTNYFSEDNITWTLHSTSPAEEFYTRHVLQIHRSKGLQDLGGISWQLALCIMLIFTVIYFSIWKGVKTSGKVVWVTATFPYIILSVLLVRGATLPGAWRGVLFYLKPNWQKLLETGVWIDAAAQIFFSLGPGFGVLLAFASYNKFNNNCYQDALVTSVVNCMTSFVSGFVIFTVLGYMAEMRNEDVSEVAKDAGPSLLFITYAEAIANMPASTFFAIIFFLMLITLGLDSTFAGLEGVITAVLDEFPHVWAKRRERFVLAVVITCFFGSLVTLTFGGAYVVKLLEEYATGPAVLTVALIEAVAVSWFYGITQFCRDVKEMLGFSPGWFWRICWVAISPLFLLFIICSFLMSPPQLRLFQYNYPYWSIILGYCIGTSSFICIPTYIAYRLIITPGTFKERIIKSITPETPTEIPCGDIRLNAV

COc1ccc(C23C=CC(O)CC2N(C)CC3)cc1OC (stereo not drawn) [mesembrenol]
5-HT uptake inhibitory activity (5-HT uptake): potent 5-HT uptake inhibitory activity

COc1ccc([C@@]23CCC(=O)C[C@@H]2N(C)CC3)cc1OC [mesembrine]
stability [1]: unstable

COc1ccc(C23CCC(=O)CC2N(C)CC3)cc1OC.Cl (stereo not drawn) [Mesembrine hydrochloride]
PDE4 inhibition (PDE4): weak PDE4 inhibitor
